Results: ChEMBL document CHEMBL5338754, “Identification of Binding Sites in the Nucleotide-Binding Domain of P-Glycoprotein for a Potent and Nontoxic Modulator, the Amine-Containing Monomeric Flavonoid FM04” (J Med Chem, 2023)

Experiments:
[1] = molecular target: ATP-dependent translocase ABCB1 (Homo sapiens, UniProt P08183, Q1193T); test: Negative allosteric modulator activity at human P-gp Q1193T mutant expressed in HEK293FT cells assessed as fold change in intracellular doxorubicin accumulation using doxorubicin as substrate at 1 uM incubated for 150 mins by microplate reader assay relative to DMSO; type: cell-based; details: 2.5 h
[2] = molecular target: ATP-dependent translocase ABCB1 (Homo sapiens, UniProt P08183, G1114A); test: Negative allosteric modulator activity at human P-gp G1114A mutant expressed in HEK293FT cells assessed as increase in intracellular doxorubicin accumulation using doxorubicin as substrate at 1 uM incubated for 150 mins by microplate reader assay (reference value: 98.8 +/- 1.4 %); type: cell-based; details: 2.5 h
[3] = molecular target: T1, ATP-dependent translocase ABCB1 (Homo sapiens, UniProt P08183); test: Negative allosteric modulator activity at human wildtype P-gp expressed in HEK293FT cells assessed as increase in intracellular doxorubicin accumulation using doxorubicin as substrate at 1 uM incubated for 150 mins by microplate reader assay (reference value: 47.9 +/- 3.5 %); type: cell-based; details: 2.5 h
[4] = molecular target: ATP-dependent translocase ABCB1 (Homo sapiens, UniProt P08183, I1115M); test: Negative allosteric modulator activity at human P-gp I1115M mutant expressed in HEK293FT cells assessed as increase in intracellular doxorubicin accumulation using doxorubicin as substrate at 1 uM incubated for 150 mins by microplate reader assay (reference value: 97 +/- 3.1 %); type: cell-based; details: 2.5 h
[5] = molecular target: P-gp (ABCB1) I1115F mutant (Homo sapiens, UniProt P08183, I1115F); test: Activation of P-gp ATPase activity in human P-gp I1115F mutant expressed in HEK293FT cell microsomes assessed as fold change of ATPase activity at 20 uM incubated for 1 hr in presence of ATP by Glo-luminescence based microplate reader assay relative to DMSO; parameters: species or system Microsome; details: read-out: FC
[6] = molecular target: T1, ATP-dependent translocase ABCB1; test: Binding affinity to human P-glycoprotein expressed in LCC6MDR cells assessed as stabilization of protein by measuring fluorescence at 100 uM incubated for 1 hr by Western blotting analysis; type: cell-based
[7] = molecular target: ATP-dependent translocase ABCB1 (Homo sapiens, UniProt P08183, Q1193C); test: Negative allosteric modulator activity at human P-gp Q1193C mutant expressed in HEK293FT cells assessed as fold change in intracellular doxorubicin accumulation using doxorubicin as substrate at 1 uM incubated for 150 mins by microplate reader assay relative to DMSO; type: cell-based; details: 2.5 h
[8] = molecular target: T2, ATP-dependent translocase ABCB1 (Homo sapiens, UniProt P08183, C1227A); test: Negative allosteric modulator activity at human P-gp C1227A mutant expressed in HEK293FT cells assessed as fold change in intracellular doxorubicin accumulation using doxorubicin as substrate at 1 uM incubated for 150 mins by microplate reader assay relative to DMSO; type: cell-based; details: 2.5 h
[9] = molecular target: ATP-dependent translocase ABCB1 (Homo sapiens, UniProt P08183, Q1193K); test: Negative allosteric modulator activity at human P-gp Q1193K mutant expressed in HEK293FT cells assessed as fold change in intracellular doxorubicin accumulation using doxorubicin as substrate at 1 uM incubated for 150 mins by microplate reader assay relative to DMSO; type: cell-based; details: 2.5 h
[10] = molecular target: ATP-dependent translocase ABCB1 (Homo sapiens, UniProt P08183, G1114I); test: Negative allosteric modulator activity at human P-gp G1114I mutant expressed in HEK293FT cells assessed as fold change in intracellular doxorubicin accumulation using doxorubicin as substrate at 1 uM incubated for 150 mins by microplate reader assay relative to DMSO; type: cell-based; details: 2.5 h
[11] = molecular target: T3, ATP-dependent translocase ABCB1 (Homo sapiens, UniProt P08183, Q1193F); test: Negative allosteric modulator activity at human P-gp Q1193F mutant expressed in HEK293FT cells assessed as increase in intracellular doxorubicin accumulation using doxorubicin as substrate at 1 uM incubated for 150 mins by microplate reader assay (reference value: 64.7 +/- 2.6 %); type: cell-based; details: 2.5 h
[12] = molecular target: T4, ATP-dependent translocase ABCB1 (Homo sapiens, UniProt P08183, Q1193A); test: Negative allosteric modulator activity at human P-gp Q1193A mutant expressed in HEK293FT cells assessed as fold change in intracellular doxorubicin accumulation using doxorubicin as substrate at 1 uM incubated for 150 mins by microplate reader assay relative to DMSO; type: cell-based; details: 2.5 h
[13] = molecular target: T3, ATP-dependent translocase ABCB1; test: Negative allosteric modulator activity at human P-gp Q1193F mutant expressed in HEK293FT cells assessed as fold change in intracellular doxorubicin accumulation using doxorubicin as substrate at 1 uM incubated for 150 mins by microplate reader assay relative to DMSO; type: cell-based; details: 2.5 h
[14] = molecular target: T1, ATP-dependent translocase ABCB1; test: Negative allosteric modulator activity at P-gp in human LCC6MDR cells overexpressing P-gp assessed as reversal of P-gp mediated paclitaxel resistance activity by measuring relative fold at 1 uM incubated for 5 days by MTS assay; type: cell-based; details: 120 h, time 5 day
[15] = molecular target: T2, ATP-dependent translocase ABCB1; test: Negative allosteric modulator activity at human P-gp C1227A mutant expressed in HEK293FT cells assessed as increase in intracellular doxorubicin accumulation using doxorubicin as substrate at 1 uM incubated for 150 mins by microplate reader assay (reference value: 33.3 +/- 1.3 %); type: cell-based; details: 2.5 h
[16] = molecular target: T1, ATP-dependent translocase ABCB1; test: Activation of P-gp ATPase activity in wildtype human P-gp expressed in HEK293FT cell microsomes at 20 uM incubated for 1 hr in presence of ATP by Glo-luminescence based microplate reader assay (reference value: 0.32 +/- 0.02 pmol/min/microg); parameters: species or system Microsome
[17] = molecular target: T3, ATP-dependent translocase ABCB1; test: Negative allosteric modulator activity at human P-gp Q1193F mutant expressed in HEK293FT cells assessed as reversal of P-gp mediated PTX resistance by measuring sensitivity fold change incubated for 5 days by MTS assay; type: cell-based; details: 120 h, time 5 day
[18] = molecular target: ATP-dependent translocase ABCB1 (Homo sapiens, UniProt P08183, I1115L); test: Negative allosteric modulator activity at human P-gp I1115L mutant expressed in HEK293FT cells assessed as reversal of P-gp mediated PTX resistance by measuring sensitivity fold change incubated for 5 days by MTS assay; type: cell-based; details: 120 h, time 5 day
[19] = molecular target: ATP-dependent translocase ABCB1 (Mus musculus, UniProt P06795); test: Binding affinity to mouse P-glycoprotein expressed in Pichia pastoris assessed as stabilization of protein by measuring fluorescence at 100 uM incubated for 1 hr by Western blotting analysis
[20] = molecular target: T4, ATP-dependent translocase ABCB1; test: Activation of P-gp ATPase activity in human P-gp Q1193A mutant expressed in HEK293FT cell microsomes at 20 uM incubated for 1 hr in presence of ATP by Glo-luminescence based microplate reader assay (reference value: 0.38 +/- 0.04 pmol/min/microg); parameters: species or system Microsome
[21] = molecular target: ATP-dependent translocase ABCB1 (Homo sapiens, UniProt P08183, I1115E); test: Negative allosteric modulator activity at human P-gp I1115E mutant expressed in HEK293FT cells assessed as increase in intracellular doxorubicin accumulation using doxorubicin as substrate at 1 uM incubated for 150 mins by microplate reader assay (reference value: 94.7 +/- 5.1 %); type: cell-based; details: 2.5 h

T3 sequence (P08183 whole entry Q1193F): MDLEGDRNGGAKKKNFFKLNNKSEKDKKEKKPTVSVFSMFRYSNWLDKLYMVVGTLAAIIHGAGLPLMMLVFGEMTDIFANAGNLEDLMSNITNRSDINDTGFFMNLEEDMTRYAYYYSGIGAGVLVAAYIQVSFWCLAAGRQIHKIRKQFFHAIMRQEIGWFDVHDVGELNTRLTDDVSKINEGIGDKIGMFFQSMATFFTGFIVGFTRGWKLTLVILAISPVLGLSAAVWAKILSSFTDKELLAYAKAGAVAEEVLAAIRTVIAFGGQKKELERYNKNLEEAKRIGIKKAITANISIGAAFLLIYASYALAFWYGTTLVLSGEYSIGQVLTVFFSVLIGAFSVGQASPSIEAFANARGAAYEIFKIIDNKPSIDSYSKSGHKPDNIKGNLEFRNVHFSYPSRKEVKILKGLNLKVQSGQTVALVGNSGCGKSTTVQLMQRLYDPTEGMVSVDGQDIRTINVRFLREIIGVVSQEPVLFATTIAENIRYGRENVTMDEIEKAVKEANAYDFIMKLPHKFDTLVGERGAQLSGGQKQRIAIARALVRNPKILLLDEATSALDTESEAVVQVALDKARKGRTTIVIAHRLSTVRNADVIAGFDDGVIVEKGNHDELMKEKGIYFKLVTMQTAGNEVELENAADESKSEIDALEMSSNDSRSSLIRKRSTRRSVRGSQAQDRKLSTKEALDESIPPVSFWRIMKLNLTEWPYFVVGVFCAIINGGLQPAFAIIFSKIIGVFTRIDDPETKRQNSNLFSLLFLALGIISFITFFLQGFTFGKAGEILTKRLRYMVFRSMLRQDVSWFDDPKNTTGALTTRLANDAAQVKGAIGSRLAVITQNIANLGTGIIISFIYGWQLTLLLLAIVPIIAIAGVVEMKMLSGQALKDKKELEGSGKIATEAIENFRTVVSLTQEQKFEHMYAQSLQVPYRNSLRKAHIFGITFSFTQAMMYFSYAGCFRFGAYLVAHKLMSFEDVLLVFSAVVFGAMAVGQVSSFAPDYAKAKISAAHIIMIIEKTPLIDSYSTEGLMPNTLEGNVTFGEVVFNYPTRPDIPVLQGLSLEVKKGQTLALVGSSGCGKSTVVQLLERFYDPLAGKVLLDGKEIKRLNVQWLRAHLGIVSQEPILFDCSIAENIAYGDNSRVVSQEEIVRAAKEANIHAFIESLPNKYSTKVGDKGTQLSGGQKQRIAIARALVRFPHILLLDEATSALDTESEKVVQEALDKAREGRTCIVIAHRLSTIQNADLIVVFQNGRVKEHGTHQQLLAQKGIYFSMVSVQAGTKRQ
T1 sequence (P08183 whole entry): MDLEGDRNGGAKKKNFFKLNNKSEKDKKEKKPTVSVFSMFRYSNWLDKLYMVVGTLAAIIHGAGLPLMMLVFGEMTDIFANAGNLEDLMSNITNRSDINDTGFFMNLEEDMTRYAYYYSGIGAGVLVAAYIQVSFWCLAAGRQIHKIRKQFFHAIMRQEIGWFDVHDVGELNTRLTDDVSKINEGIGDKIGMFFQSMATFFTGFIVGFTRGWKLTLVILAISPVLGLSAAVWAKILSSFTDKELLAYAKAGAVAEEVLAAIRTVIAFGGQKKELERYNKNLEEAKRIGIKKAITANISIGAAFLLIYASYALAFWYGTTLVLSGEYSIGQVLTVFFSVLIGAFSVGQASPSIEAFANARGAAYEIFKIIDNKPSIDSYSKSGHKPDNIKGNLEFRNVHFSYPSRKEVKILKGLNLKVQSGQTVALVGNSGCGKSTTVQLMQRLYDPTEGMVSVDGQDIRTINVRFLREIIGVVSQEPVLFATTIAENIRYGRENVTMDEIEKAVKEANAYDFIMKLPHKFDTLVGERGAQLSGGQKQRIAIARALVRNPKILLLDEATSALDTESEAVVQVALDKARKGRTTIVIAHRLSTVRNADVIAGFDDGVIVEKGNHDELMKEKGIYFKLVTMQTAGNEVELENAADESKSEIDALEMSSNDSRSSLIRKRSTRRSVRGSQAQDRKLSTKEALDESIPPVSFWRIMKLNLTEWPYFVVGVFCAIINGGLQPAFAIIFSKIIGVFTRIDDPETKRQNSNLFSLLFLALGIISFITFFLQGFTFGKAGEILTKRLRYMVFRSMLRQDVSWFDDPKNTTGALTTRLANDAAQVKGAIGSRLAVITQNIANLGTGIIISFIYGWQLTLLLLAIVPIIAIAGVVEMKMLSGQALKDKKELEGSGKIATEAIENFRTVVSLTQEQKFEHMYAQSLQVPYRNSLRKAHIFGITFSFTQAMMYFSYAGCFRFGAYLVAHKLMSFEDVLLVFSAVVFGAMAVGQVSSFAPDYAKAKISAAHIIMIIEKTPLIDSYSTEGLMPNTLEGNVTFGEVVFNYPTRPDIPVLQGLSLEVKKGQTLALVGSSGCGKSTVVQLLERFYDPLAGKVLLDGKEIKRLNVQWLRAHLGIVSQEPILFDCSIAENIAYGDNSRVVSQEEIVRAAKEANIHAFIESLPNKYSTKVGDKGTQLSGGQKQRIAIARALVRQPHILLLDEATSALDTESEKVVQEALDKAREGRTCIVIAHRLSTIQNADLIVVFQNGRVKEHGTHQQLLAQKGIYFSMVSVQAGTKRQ
T2 sequence (P08183 whole entry C1227A): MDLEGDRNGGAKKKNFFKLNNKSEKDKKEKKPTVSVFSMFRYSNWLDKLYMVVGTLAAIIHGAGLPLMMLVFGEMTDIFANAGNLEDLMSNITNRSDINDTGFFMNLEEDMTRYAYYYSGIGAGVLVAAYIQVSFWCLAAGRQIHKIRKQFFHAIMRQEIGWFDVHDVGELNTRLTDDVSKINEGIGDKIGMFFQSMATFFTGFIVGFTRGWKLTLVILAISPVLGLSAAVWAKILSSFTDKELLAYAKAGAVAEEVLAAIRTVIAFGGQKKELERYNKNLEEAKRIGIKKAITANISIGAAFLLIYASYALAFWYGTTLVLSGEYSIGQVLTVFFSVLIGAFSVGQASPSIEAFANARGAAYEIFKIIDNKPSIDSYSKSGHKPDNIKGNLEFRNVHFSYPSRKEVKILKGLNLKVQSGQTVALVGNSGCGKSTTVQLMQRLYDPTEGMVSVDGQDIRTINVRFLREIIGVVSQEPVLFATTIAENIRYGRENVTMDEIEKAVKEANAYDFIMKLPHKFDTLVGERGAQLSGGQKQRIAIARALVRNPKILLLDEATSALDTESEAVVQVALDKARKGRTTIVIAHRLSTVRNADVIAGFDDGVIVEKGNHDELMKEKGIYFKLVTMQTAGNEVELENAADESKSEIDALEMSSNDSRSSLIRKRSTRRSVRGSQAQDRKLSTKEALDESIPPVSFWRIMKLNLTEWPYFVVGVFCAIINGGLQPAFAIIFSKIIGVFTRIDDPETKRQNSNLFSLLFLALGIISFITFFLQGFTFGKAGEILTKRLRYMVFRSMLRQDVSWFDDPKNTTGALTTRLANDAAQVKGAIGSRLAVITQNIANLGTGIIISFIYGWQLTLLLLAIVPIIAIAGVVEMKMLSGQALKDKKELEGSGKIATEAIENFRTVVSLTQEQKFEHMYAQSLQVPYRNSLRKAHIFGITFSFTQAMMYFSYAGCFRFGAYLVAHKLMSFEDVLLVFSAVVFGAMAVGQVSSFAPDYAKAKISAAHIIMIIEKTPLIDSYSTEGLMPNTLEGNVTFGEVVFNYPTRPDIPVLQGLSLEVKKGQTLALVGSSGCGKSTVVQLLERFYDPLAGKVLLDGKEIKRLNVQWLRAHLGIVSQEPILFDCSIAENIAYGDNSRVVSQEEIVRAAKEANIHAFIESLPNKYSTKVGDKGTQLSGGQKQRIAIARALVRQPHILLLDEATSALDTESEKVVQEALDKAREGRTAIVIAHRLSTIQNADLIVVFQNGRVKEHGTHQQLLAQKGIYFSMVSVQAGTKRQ
T4 sequence (P08183 whole entry Q1193A): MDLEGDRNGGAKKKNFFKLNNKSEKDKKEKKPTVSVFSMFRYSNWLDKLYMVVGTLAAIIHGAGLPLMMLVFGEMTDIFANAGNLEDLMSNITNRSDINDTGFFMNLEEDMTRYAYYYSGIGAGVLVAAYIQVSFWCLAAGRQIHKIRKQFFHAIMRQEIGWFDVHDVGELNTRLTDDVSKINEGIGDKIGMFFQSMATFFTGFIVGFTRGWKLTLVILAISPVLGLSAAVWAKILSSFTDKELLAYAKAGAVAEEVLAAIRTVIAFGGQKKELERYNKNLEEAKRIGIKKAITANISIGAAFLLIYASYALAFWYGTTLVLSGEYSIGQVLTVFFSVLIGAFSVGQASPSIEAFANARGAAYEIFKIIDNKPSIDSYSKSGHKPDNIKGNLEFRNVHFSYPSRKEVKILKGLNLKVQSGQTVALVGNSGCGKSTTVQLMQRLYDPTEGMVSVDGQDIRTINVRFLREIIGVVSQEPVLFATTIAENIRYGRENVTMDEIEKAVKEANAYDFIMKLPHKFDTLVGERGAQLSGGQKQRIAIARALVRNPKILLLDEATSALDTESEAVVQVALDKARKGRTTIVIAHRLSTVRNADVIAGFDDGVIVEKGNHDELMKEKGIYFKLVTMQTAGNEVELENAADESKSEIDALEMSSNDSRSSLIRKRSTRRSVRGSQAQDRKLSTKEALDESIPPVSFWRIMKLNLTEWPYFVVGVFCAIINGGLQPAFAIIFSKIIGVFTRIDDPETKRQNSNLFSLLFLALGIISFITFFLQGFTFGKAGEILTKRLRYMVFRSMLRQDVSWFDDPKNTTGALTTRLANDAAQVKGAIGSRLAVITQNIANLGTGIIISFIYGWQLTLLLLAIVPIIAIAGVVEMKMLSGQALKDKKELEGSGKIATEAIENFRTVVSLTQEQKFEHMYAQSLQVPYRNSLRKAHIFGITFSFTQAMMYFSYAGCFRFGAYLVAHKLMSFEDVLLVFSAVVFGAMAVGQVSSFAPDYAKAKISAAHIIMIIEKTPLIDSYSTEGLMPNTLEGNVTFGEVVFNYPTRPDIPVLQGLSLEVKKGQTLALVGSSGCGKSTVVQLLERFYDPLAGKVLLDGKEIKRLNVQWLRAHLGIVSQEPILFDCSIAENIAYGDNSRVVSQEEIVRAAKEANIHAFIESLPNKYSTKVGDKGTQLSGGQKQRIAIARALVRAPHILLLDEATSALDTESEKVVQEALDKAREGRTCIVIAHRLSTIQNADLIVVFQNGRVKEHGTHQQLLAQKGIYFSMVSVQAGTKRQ

O=c1cc(-c2ccc(OCCOCCNCc3ccccc3)cc2)oc2ccccc12
fold change (FC) [1]: 1.3 | Activity [2]: 93.5% | Activity [3]: 90.1% | Activity [4]: 93.3% | fold induction at 1 h, 20 µM [5]: 1.2 | Activity [6]: Active | fold change (FC) [7]: 1.3 | fold change (FC) [8]: 1.3 | fold change (FC) [9]: 1.3 | fold change (FC) [10]: 1 | Activity [11]: 74.6% | fold change (FC) [12]: 1.1 | fold change (FC) [13]: 1.2 | fold change (FC) [14]: 34.1 | Activity [15]: 43.8% | Activity [16]: 0.52 pmol/min/µg | fold change (FC) [17]: 5.6 | fold change (FC) [18]: 45.8 | Activity [19]: Not Active | Activity [20]: 0.42 pmol/min/µg | Activity [21]: 97.8%
